Measured values as given in US7875647B2, “Heteroaryl-pyrazole derivatives as cannabinoid CB1 receptor antagonists” (Green Cross Corporation, priority 2006, dated 2011).

Experiments:
DIO mice = assay: Chronic effects in DIO mice (body weight change, oral administration for 14 days); assay type: in vivo; conditions: DIO mice (male C57BL/6J), 10 mg/kg, FIG. 1
Method: Male C57BL/6J mice weighing over 38 g were housed 1 per cage on a 12-/12-h light/dark cycle, had free access to food (rodent sterilizable diet) and water, and were experimentally native before testing. Mice were allowed at least 7 days to habituate to the experimental room prior to testing, and testing was conducted during the light period. Mice were maintained and experiments were conducted in accordance with the Institutional Animal Care.
By oral administration, animals received at a volume of 10 ml/kg for 14 days. All control animals received 10% DMSO dissolved in deionized water.
The vehicles 10% DMSO treated group were comprised of 5 mice in oral test. There were 6 mice in each of the other experimental groups (n=6 in each group). By oral administration, the losing weight was checked everyday for the drug treated group and the control group.

[1] = target: T1, Cannabinoid-1 receptor (CB1R) (Rattus norvegicus, UniProt P20272); assay: Cannabinoid-1 receptor (CB1R) binding affinity assay ([3H]CP-55940, rat CB-1 receptor binding protocol); conditions: brain tissue of SD rats, [3H]CP-55940, 30° C. 60 min; read-out: IC50
T1 construct: The tissue obtained from the brain of SD rats was homogenized; from tissue; host or cells: brain of SD rats (membrane pellet of the homogenate)
T1 sequence (P20272 whole entry): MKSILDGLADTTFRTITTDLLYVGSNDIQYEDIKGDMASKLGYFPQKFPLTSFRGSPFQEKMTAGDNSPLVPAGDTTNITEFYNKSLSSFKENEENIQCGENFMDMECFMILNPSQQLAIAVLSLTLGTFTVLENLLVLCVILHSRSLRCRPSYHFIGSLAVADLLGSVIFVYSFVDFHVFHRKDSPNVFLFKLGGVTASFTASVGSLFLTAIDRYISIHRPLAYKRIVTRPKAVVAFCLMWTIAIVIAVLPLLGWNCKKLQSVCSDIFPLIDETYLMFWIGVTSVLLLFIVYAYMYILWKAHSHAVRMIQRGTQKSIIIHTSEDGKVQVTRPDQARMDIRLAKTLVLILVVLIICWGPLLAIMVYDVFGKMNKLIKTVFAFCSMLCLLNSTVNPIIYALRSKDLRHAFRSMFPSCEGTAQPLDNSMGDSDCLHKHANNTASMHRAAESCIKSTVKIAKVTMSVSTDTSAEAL

Row | Structure (SMILES) | Body weight change from day 0 (DIO mice) | IC50 [1]
1 | Cc1c(-c2nnc(C3(C(F)(F)F)CC3)o2)nn(-c2ccc(Cl)cc2Cl)c1-c1ccc(Cl)cc1 [Example 132, 2-(5-(4-chlorophenyl)-1-(2,4-dichlorophenyl)-4-methyl-1H-pyrazol-3-yl)-5-(1-(trifluoromethyl)cyclopropyl)-1,3,4-oxadiazole] | observed on all days | 8.53 nM
2 | CCc1c(-c2nnc(C3(C(F)(F)F)CC3)o2)nn(-c2ccc(Cl)cc2Cl)c1-c1ccc(Cl)cc1 [Example 155, 2-(5-(4-chlorophenyl)-1-(2,4-dichlorophenyl)-4-ethyl-1H-pyrazol-3-yl)-5-(1-(trifluoromethyl)cyclopropyl)-1,3,4-oxadiazole] | observed on all days | –
3 | CC(C)(C)c1nnc(-c2nn(-c3ccc(Cl)cc3Cl)c(-c3ccc(Cl)cc3)c2Cn2cncn2)s1 [Example 502, 2-(4-((1H-1,2,4-triazol-1-yl)methyl)-5-(4-chlorophenyl)-1-(2,4-dichlorophenyl)-1H-pyrazol-3-yl)-5-tert-butyl-1,3,4-thiadiazole] | observed on all days | –
4 | Cc1c(C(=O)NN2CCCCC2)nn(-c2ccc(Cl)cc2Cl)c1-c1ccc(Cl)cc1 [rimonabant, reference compound] | observed on all days | –
